Data taken from the supplement of paper PMC10307832.

Assays:
Assay in all cases: relative viability (nuclei count vs DMSO), 5 days (fraction); higher = more cells survive
Quizartinib = compound: CC(C)(C)c1cc(NC(=O)Nc2ccc(-c3cn4c(n3)sc3cc(OCCN5CCOCC5)ccc34)cc2)no1 [Quizartinib]
Summary of the method: (§1)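 On vehicle-anchored 1536-well plates, lung cancer cell lines held overnight at 37 °C were pinned with five library-drug doses (not always all listed) spaced by √10. With no medium change over 5 days, they were then fixed, permeabilised and Hoechst-stained in one step and imaged at 4×. MetaXpress counted nuclei, and viability is the median across plates of treated-well over vehicle-well nuclei. Acceptance needed control CV below 25% and at least one doubling.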

YM155 = compound: COCC[n+]1c2c(n(Cc3cnccn3)c1C)C(=O)c1ccccc1C2=O [YM155]
Summary of the method: as §1

YM155 + Bortezomib = compound: COCC[n+]1c2c(n(Cc3cnccn3)c1C)C(=O)c1ccccc1C2=O [YM155] + CC(C)C[C@H](NC(=O)[C@H](Cc1ccccc1)NC(=O)c1cnccn1)B(O)O [Bortezomib] (partner 0.002 µM)
Summary of the method: (§2)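 One day after seeding in 1536-well plates, lung cancer cell lines were dosed by pin tool. Dosing was either single-drug or a fixed anchor-drug dose plus five library-drug doses (not always all listed) in √10 steps. After 5 days, nuclei were stained in one fix-and-stain step and counted on 4× images, and relative viability is the nuclei count of treated wells over that of vehicle wells, given as the median of duplicate plates.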

Quizartinib + Alpelisib = compound: CC(C)(C)c1cc(NC(=O)Nc2ccc(-c3cn4c(n3)sc3cc(OCCN5CCOCC5)ccc34)cc2)no1 [Quizartinib] + Cc1nc(NC(=O)N2CCC[C@H]2C(N)=O)sc1-c1ccnc(C(C)(C)C(F)(F)F)c1 [Alpelisib] (partner 2 µM)
Summary of the method: as §2

Cell Line	relative viability (Quizartinib; 0.001 µM)	relative viability (Quizartinib; 0.003162 µM)	relative viability (Quizartinib; 0.01 µM)	relative viability (Quizartinib; 0.03162 µM)	relative viability (Quizartinib; 0.1 µM)	relative viability (YM155; 0.002 µM)	relative viability (YM155; 0.006325 µM)	relative viability (YM155; 0.02 µM)	relative viability (YM155; 0.06325 µM)	relative viability (YM155 + Bortezomib; first compound 0.002 µM)	relative viability (YM155 + Bortezomib; first compound 0.006325 µM)	relative viability (YM155 + Bortezomib; first compound 0.02 µM)	relative viability (YM155 + Bortezomib; first compound 0.06325 µM)	relative viability (Quizartinib + Alpelisib; first compound 0.001 µM)	relative viability (Quizartinib + Alpelisib; first compound 0.003162 µM)	relative viability (Quizartinib + Alpelisib; first compound 0.01 µM)	relative viability (Quizartinib + Alpelisib; first compound 0.03162 µM)	relative viability (Quizartinib + Alpelisib; first compound 0.1 µM)
201T	1.01	1.01	0.987	0.98	0.934	0.922	1.01	1.01	0.998	1.04	1.13	1.09	1.06	0.759	0.957	0.988	0.987	0.982
A549	0.751	0.976	0.928	0.884	1.05	1.02	0.984	0.995	0.906	–	–	–	–	0.661	0.763	0.849	–	0.833
A-427	0.771	0.982	0.979	0.922	1.05	0.883	0.951	1.03	0.941	0.972	0.99	1.17	0.896	1.06	1	1.12	1.06	1.04
ABC-1	0.771	0.825	0.817	0.673	0.913	0.707	0.61	0.396	0.219	0.271	0.4	0.241	0.209	0.951	0.996	1.02	0.497	1.12
BEN	0.906	0.982	0.94	0.813	0.972	0.899	0.972	1.09	1.11	0.665	0.849	0.852	0.906	0.919	0.863	1.05	0.795	0.969
CAL-12T	0.92	1.06	1.05	0.821	1.11	0.928	0.998	1.08	0.719	–	1.04	1.29	0.895	1.03	1.08	1.29	0.467	1.47
COR-L23	0.952	0.939	0.992	0.979	1.05	0.988	0.912	0.689	0.281	0.923	0.929	0.617	0.362	0.725	0.708	0.843	0.61	0.759
COR-L 105	0.864	0.961	0.906	0.87	1.05	0.914	0.804	0.912	0.692	0.682	0.81	0.958	0.786	0.751	0.898	1.12	0.527	1.05
Calu-6	0.902	0.982	1.05	0.879	1.02	0.992	0.996	0.557	0.186	0.966	0.84	0.298	0.188	0.92	0.915	1	0.761	0.947
ChaGo-K-1	0.773	1.05	1.01	0.851	1.05	0.906	1	0.987	0.918	1.02	1.01	0.927	0.956	–	–	–	–	–
EBC-1	0.891	0.871	0.981	0.922	0.977	0.954	0.971	1.07	1	0.613	0.458	0.566	0.593	0.664	0.708	0.89	0.915	0.812
EKVX	0.704	1	0.99	0.935	1.05	0.927	1.07	1.01	0.857	0.955	0.934	1.08	0.984	0.799	0.841	0.924	0.914	0.973
EMC-BAC-2	0.919	0.976	0.927	–	1.05	0.883	0.971	1.09	0.808	1.03	1.08	1.04	1.06	0.695	0.696	0.762	0.766	0.73
EPLC-272H	0.878	1.08	1.03	1.04	0.761	0.883	0.989	1.01	1.15	0.846	1.04	0.875	0.862	0.667	1.04	0.95	0.969	1.06
H3255	0.822	0.964	0.969	1.03	1.01	0.953	0.998	1.01	0.929	0.711	0.719	0.858	0.693	0.55	0.619	0.795	0.63	0.797
HARA	0.946	0.924	1.05	0.954	0.941	0.823	1.15	1.05	1.09	1.06	1.1	1.14	1.04	0.485	0.78	0.893	0.791	0.749
HCC-15	0.842	1	0.978	0.957	0.963	0.928	1.11	0.975	1.02	0.939	1.02	0.965	0.953	0.833	0.881	0.941	0.884	0.787
HCC-44	0.963	0.981	0.888	1	0.858	0.986	1.03	0.988	0.978	0.871	0.908	0.968	0.936	0.798	0.78	0.864	0.825	0.638
HCC-78	0.967	1.03	0.911	0.865	0.988	0.898	1.08	1.08	1.05	0.536	0.569	0.552	0.656	0.343	0.33	0.393	0.315	0.342
HCC-366	0.978	1.04	1.06	1.04	1.02	1.05	0.993	1.01	1.06	1.1	1.1	0.917	1.02	0.348	0.31	0.448	0.404	0.358

Cell Line	relative viability (Quizartinib; 0.001 µM)	relative viability (Quizartinib; 0.003162 µM)	relative viability (Quizartinib; 0.01 µM)	relative viability (Quizartinib; 0.03162 µM)	relative viability (Quizartinib; 0.1 µM)	relative viability (YM155; 0.002 µM)	relative viability (YM155; 0.006325 µM)	relative viability (YM155; 0.02 µM)	relative viability (YM155; 0.06325 µM)	relative viability (YM155 + Bortezomib; first compound 0.002 µM)	relative viability (YM155 + Bortezomib; first compound 0.006325 µM)	relative viability (YM155 + Bortezomib; first compound 0.02 µM)	relative viability (YM155 + Bortezomib; first compound 0.06325 µM)	relative viability (Quizartinib + Alpelisib; first compound 0.001 µM)	relative viability (Quizartinib + Alpelisib; first compound 0.003162 µM)	relative viability (Quizartinib + Alpelisib; first compound 0.01 µM)	relative viability (Quizartinib + Alpelisib; first compound 0.03162 µM)	relative viability (Quizartinib + Alpelisib; first compound 0.1 µM)
HCC-827	0.943	1.04	0.978	1.03	1.09	0.986	1.05	1.03	1.11	1.01	1.04	1.02	0.912	0.952	0.858	0.965	0.976	0.987
HOP-62	0.843	0.954	1.01	1.1	0.979	0.971	0.93	1.06	0.93	0.737	0.752	0.763	0.696	0.75	0.706	1.19	1.26	0.907
IA-LM	0.889	0.992	1.11	0.924	0.933	0.864	0.969	1.04	0.764	0.806	0.78	0.874	0.737	0.695	0.761	0.808	0.789	0.844
LC-2-ad	0.827	1.02	0.972	0.863	0.892	0.914	0.978	0.972	0.913	0.975	1.03	1.02	0.947	0.775	0.837	0.952	0.9	0.592
LCLC-97TM1	0.771	0.968	0.918	0.964	1	0.791	0.955	1.04	0.957	0.313	0.74	0.621	0.185	–	0.22	0.267	0.261	0.252
LCLC-103H	0.87	0.983	0.911	0.994	0.971	0.996	0.941	0.932	1.02	1.01	1.06	1.17	1.1	1.01	0.533	0.94	1.04	0.943
LK-2	0.943	0.891	1.02	0.944	1.15	0.893	1.06	1.03	1.16	–	–	–	–	1.14	1.08	1.04	1.03	1.06
LOU-NH91	0.954	1.12	0.965	0.857	1.14	0.958	1.01	1.02	1.07	0.704	0.521	0.487	0.555	0.683	0.724	0.761	0.5	0.771
NCI-H358	0.892	0.979	0.841	–	0.873	0.831	0.954	1.07	0.34	–	–	–	–	0.693	0.89	0.815	–	0.753
NCI-H522	0.874	1.09	1.04	0.901	0.97	0.913	0.923	1.08	0.997	–	–	–	–	–	–	–	–	–
NCI-H1395	0.93	0.949	0.841	0.811	1.16	0.898	0.946	1.12	0.985	–	–	–	–	1.05	1.01	1.21	1.06	0.995
NCI-H1623	0.845	1.12	0.905	0.977	1.09	0.934	1.29	1.02	1.02	–	–	–	–	–	–	–	–	–
NCI-H1650	0.877	0.976	0.918	–	1	0.867	0.921	0.863	0.739	0.216	0.23	0.221	0.19	–	–	–	–	–
NCI-H1793	0.838	1.01	0.839	0.853	0.925	0.706	0.936	0.908	0.869	–	–	–	–	0.588	0.875	0.788	0.731	0.798
NCI-H1944	0.938	0.918	0.889	0.918	0.944	0.957	0.889	1.02	1.03	–	–	–	–	0.691	0.826	0.898	0.89	0.805
NCI-H2170	0.97	0.944	1.04	1.04	0.995	0.922	1.05	0.936	1.05	–	–	–	–	0.769	0.683	0.956	0.787	0.809
NCI-H2342	0.953	0.992	1.02	0.88	1.06	0.947	0.997	0.996	0.949	–	–	–	–	–	–	–	–	–
SK-MES-1	0.944	0.96	1.09	0.732	0.924	0.956	1.02	0.942	0.692	–	–	–	–	0.838	0.424	1.06	0.865	0.97
SW 900	0.823	1.12	0.745	0.803	0.994	0.71	0.828	0.869	0.729	–	–	–	–	–	–	–	–	–
